This assay has as its system IL-1β secretion, THP-1 cells. In words: IL-1β secretion assay in PMA-differentiated THP-1 cells stimulated with LPS and nigericin (ELISA readout). It counts as cell-based. To be noted: Homo sapiens, THP-1, inhibition of IL-1β secretion, 25 ng/mL LPS then nigericin. The procedure, abridged:
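THP-1 cells differentiated with 5 ng/mL PMA for 40 h, primed in serum-free medium with 25 ng/mL LPS for 2 h, then compound (0.5% DMSO) for 1 h before nigericin for 2 h at 37°C. Supernatant IL-1β quantified by ELISA; normalized to high (LPS + 5 µM nigericin) and low (LPS only) controls.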

SMILES strings stand for the structures. Counter-ions that a name gives are not always drawn.

For the molecule `CC(C)c1nn(CC(=O)Nc2ccn(C)n2)c(=O)c2ccc(Br)cc12` [Example 69, 2-(6-bromo-1-oxo-4-propan-2-ylphthalazin-2-yl)-N-(1-methylpyrazol-3-yl)acetamide], the half-maximal inhibitory concentration (IC50) is less than 10 µM (class column of Table 3) and 1.71 µM (numeric column of Table 3).
In the case of `CC(C)c1nn(CC(=O)Nc2cccnn2)c(=O)c2ccc(Br)cc12` [Example 70, 2-(6-bromo-1-oxo-4-propan-2-ylphthalazin-2-yl)-N-pyridazin-3-ylacetamide], the 50% inhibitory concentration (IC50) by setting is: (class column of Table 3) less than 10 µM; (numeric column of Table 3) 0.952 µM.
`CC(C)c1nn(CC(=O)Nc2cnccn2)c(=O)c2ccc(Br)cc12` [Example 71, 2-(6-bromo-1-oxo-4-propan-2-ylphthalazin-2-yl)-N-pyrazin-2-ylacetamide]: the IC50 runs as follows: (class column of Table 3) less than 10 µM; (numeric column of Table 3) 0.499 µM.
For `CC(C)c1nn(CC(=O)NC(C)c2ccccc2)c(=O)c2ccc(Br)cc12` (stereo not drawn) [Example 72, 2-(6-bromo-1-oxo-4-propan-2-ylphthalazin-2-yl)-N-(1-phenylethyl)acetamide], the 50% inhibitory concentration (IC50) is less than 10 µM (class column of Table 3) and 9.04 µM (numeric column of Table 3).
As to `CC(C)c1nn(CC(=O)N2CCCc3ccccc32)c(=O)c2ccc(Br)cc12` [Example 73, 6-bromo-2-[2-(3,4-dihydro-2H-quinolin-1-yl)-2-oxoethyl]-4-propan-2-ylphthalazin-1-one], the concentration for half-maximal inhibition (IC50) by setting is: (class column of Table 3) less than 10 µM; (numeric column of Table 3) 9.63 µM.
As to `CC(C)c1nn(CC(=O)NCC2CCOCC2)c(=O)c2ccc(Br)cc12` [Example 74, 2-(6-bromo-1-oxo-4-propan-2-ylphthalazin-2-yl)-N-(oxan-4-ylmethyl)acetamide], the IC50 is less than 10 µM (class column of Table 3) and 3.74 µM (numeric column of Table 3).
Regarding `CC(C)c1nn(CC(=O)NCC2CCOC2)c(=O)c2ccc(Br)cc12` (stereo not drawn) [Example 75, 2-(6-bromo-1-oxo-4-propan-2-ylphthalazin-2-yl)-N-(oxolan-3-ylmethyl)acetamide], the IC50 was less than 10 µM (class column of Table 3) and 2.85 µM (numeric column of Table 3).
On to `CC(C)c1nn(CC(=O)NC(C)C2CCC2)c(=O)c2ccc(Br)cc12` (stereo not drawn) [Example 76, 2-(6-bromo-1-oxo-4-propan-2-ylphthalazin-2-yl)-N-(1-cyclobutylethyl)acetamide], for which the half-maximal inhibitory concentration (IC50) (class column of Table 3) was less than 10 µM and it took 8.06 µM to reach half-maximal inhibition (numeric column of Table 3) (IC50).
As for `CO[C@H]1C[C@@H](NC(=O)Cn2nc(C(C)C)c3cc(Br)ccc3c2=O)C1` [Example 77, 2-(6-bromo-1-oxo-4-propan-2-ylphthalazin-2-yl)-N-(3-cis-methoxycyclobutyl)acet amide], the IC50 by setting is: (class column of Table 3) less than 10 µM; (numeric column of Table 3) 3.85 µM.
Consider `CO[C@H]1C[C@H](NC(=O)Cn2nc(C(C)C)c3cc(Br)ccc3c2=O)C1` [Example 78, 2-(6-bromo-1-oxo-4-propan-2-ylphthalazin-2-yl)-N-(3-trans-methoxycyclobutyl)acet amide], for which the IC50 reads like this: (class column of Table 3) less than 10 µM; (numeric column of Table 3) 1.51 µM.
Regarding `CCN1CCC[C@@H](NC(=O)Cn2nc(C(C)C)c3cc(Cl)ccc3c2=O)C1` [Example 79, 2-(6-chloro-1-oxo-4-propan-2-ylphthalazin-2-yl)-N-[(3R)-1-ethylpiperidin-3-yl]acetamide], the IC50 by setting is: (class column of Table 3) less than 10 µM; (numeric column of Table 3) 0.61 µM.
The molecule `CC(F)c1nn(CC(=O)Nc2ncccn2)c(=O)c2ccc(Br)cc12` (stereo not drawn) [Example 80, 2-[6-bromo-4-(1-fluoroethyl)-1-oxo-phthalazin-2-yl]-N-pyrimidin-2-yl-acetamide] yielded an IC50 (class column of Table 3) of less than 10 µM and a concentration for half-maximal inhibition (IC50) (numeric column of Table 3) of 0.197 µM.
As to `CC(F)c1nn(CC(=O)Nc2ncccn2)c(=O)c2cc(Br)ccc12` (stereo not drawn) [Example 81, 2-[7-bromo-4-(1-fluoroethyl)-1-oxo-phthalazin-2-yl]-N-pyrimidin-2-yl-acetamide], the 50% inhibitory concentration (IC50) by setting is: (class column of Table 3) more than 15 µM; (numeric column of Table 3) 32 µM.
In turn, `O=C(Cn1nc(OC(F)(F)F)c2cc(Br)ccc2c1=O)Nc1ncncc1F` [Example 82] returned a half-inhibitory concentration (IC50) (class column of Table 3) of less than 10 µM and an IC50 (numeric column of Table 3) of 1.48 µM.
`O=C(Cn1nc(OC(F)(F)F)c2ccc(Br)cc2c1=O)Nc1ncncc1F` [Example 83, 2-[7-Bromo-1-Oxo-4-(Trifluoromethoxy)Phthalazin-2-yl]-N-(5-Fluoropyrimidin-4-yl)Acetamide]: the IC50 by setting is: (class column of Table 3) more than 15 µM; (numeric column of Table 3) more than 50 µM.
Turning to `CC(C)c1nn(CC(=O)NCC2CCCCO2)c(=O)c2ccc(Br)cc12` (stereo not drawn) [Example 84, 2-(6-bromo-1-oxo-4-propan-2-ylphthalazin-2-yl)-N-(oxan-2-ylmethyl)acetamide], the IC50 runs as follows: (class column of Table 3) less than 10 µM; (numeric column of Table 3) 3.71 µM.
The corresponding values for `CC(C)c1nn(CC(=O)Nc2ncncc2F)c(=O)c2cc(F)c(Br)cc12` [Example 85, 2-(6-bromo-7-fluoro-1-oxo-4-propan-2-ylphthalazin-2-yl)-N-(5-fluoropyrimidin-4-yl)acetamide] are less than 10 µM and 0.382 µM.
In the case of `CC(C)c1nn(CC(=O)Nc2ncncc2F)c(=O)c2cc(Br)c(F)cc12` [Example 86, 2-(7-bromo-6-fluoro-1-oxo-4-propan-2-ylphthalazin-2-yl)-N-(5-fluoropyrimidin-4-yl)acetamide], the IC50 runs as follows: (class column of Table 3) more than 15 µM; (numeric column of Table 3) more than 50 µM.
On the same counts, the results for `CC(C)c1nn(CC(=O)Nc2ncncc2F)c(=O)c2cc(C(F)(F)F)ccc12` [Example 88, N-(5-fluoropyrimidin-4-yl)-2-[1-oxo-4-propan-2-yl-7-(trifluoromethyl)phthalazin-2-yl]acetamide] are more than 15 µM and more than 50 µM.
Take `CCN1CCC[C@@H](NC(=O)Cn2nc(C(F)(F)F)c3cc(Br)ccc3c2=O)C1` [Example 89, 2-[6-bromo-1-oxo-4-(trifluoromethyl)phthalazin-2-yl]-N-[(3R)-1-ethylpiperidin-3-yl]acetamide]: the IC50 is, setting by setting: (class column of Table 3) less than 10 µM; (numeric column of Table 3) 0.764 µM.
With `CCN1CCC[C@@H](NC(=O)Cn2nc(C(F)(F)F)c3ccc(Br)cc3c2=O)C1` [Example 90, 2-[7-bromo-1-oxo-4-(trifluoromethyl)phthalazin-2-yl]-N-[(3R)-1-ethylpiperidin-3-yl]acetamide], the IC50 reads like this: (class column of Table 3) less than 10 µM; (numeric column of Table 3) 6.74 µM.
With `O=C(Cn1nc(CC(F)(F)F)c2cc(Br)ccc2c1=O)Nc1ncncc1F` [Example 91, 2-[6-bromo-1-oxo-4-(2,2,2-trifluoroethyl)phthalazin-2-yl]-N-(5-fluoropyrimidin-4-yl)acetamide], the half-inhibitory concentration (IC50) is less than 10 µM (class column of Table 3) and 0.489 µM (numeric column of Table 3).
As to `CC(C)c1nn(CC(=O)Nc2ncncc2F)c(=O)c2c(F)cc(Br)cc12` [Example 92, 2-(6-bromo-8-fluoro-1-oxo-4-propan-2-ylphthalazin-2-yl)-N-(5-fluoropyrimidin-4-yl)acetamide], the IC50 runs as follows: (class column of Table 3) less than 10 µM; (numeric column of Table 3) 0.741 µM.
`O=C(Cn1nc(C(F)F)c2cc(Br)ccc2c1=O)Nc1ncccn1` [Example 93, 2-[6-bromo-4-(difluoromethyl)-1-oxo-phthalazin-2-yl]-N-pyrimidin-2-yl-acetamide]: the IC50 was less than 10 µM (class column of Table 3) and 0.14 µM (numeric column of Table 3).
Molecule `O=C(Cn1nc(C(F)F)c2ccc(Br)cc2c1=O)Nc1ncccn1` [Example 94, 2-[7-bromo-4-(difluoromethyl)-1-oxo-phthalazin-2-yl]-N-pyrimidin-2-yl-acetamide] showed a half-maximal inhibitory concentration (IC50) (class column of Table 3) of less than 10 µM and a half-inhibitory concentration (IC50) (numeric column of Table 3) of 6.05 µM.
On the same counts, the results for `O=C(Cn1nc(C(F)F)c2cc(Br)ccc2c1=O)Nc1ncc(F)cn1` [Example 103, 2-[6-bromo-4-(difluoromethyl)-1-oxophthalazin-2-yl]-N-(5-fluoropyrimidin-2-yl)acetamide] are less than 10 µM and 0.265 µM.
With `O=C(Cn1nc(C(F)F)c2ccc(Br)cc2c1=O)Nc1ncc(F)cn1` [Example 104, 2-[7-bromo-4-(difluoromethyl)-1-oxophthalazin-2-yl]-N-(5-fluoropyrimidin-2-yl)acetamide], the half-inhibitory concentration (IC50) is, setting by setting: (class column of Table 3) less than 10 µM; (numeric column of Table 3) 6.99 µM.
For the molecule `O=C(Cn1nc(C(F)F)c2nc(C(F)(F)F)ccc2c1=O)Nc1ncc(F)cn1` [Example 105, 2-[8-(difluoromethyl)-5-oxo-2-(trifluoromethyl)pyrido[2,3-d]pyridazin-6-yl]-N-(5-fluoropyrimidin-2-yl)acetamide], the half-maximal inhibitory concentration (IC50) was less than 10 µM (class column of Table 3) and 0.614 µM (numeric column of Table 3).
`CC(C)c1nn(CC(=O)N[C@@H]2CCCN(C3CCC3)C2)c(=O)c2ccc(Br)cc12` [Example 106, 2-(6-bromo-1-oxo-4-propan-2-ylphthalazin-2-yl)-N-[(3R)-1-cyclobutylpiperidin-3-yl]acetamide] came in with a 50% inhibitory concentration (IC50) (class column of Table 3) of less than 10 µM and an IC50 (numeric column of Table 3) of 0.058 µM.
For the molecule `CC(C)c1nn(CC(=O)NCC2CCCN2C(=O)OC(C)(C)C)c(=O)c2ccc(Br)cc12` (stereo not drawn) [Example 107, tert-butyl 2-[[[2-(6-bromo-4-isopropyl-1-oxo-phthalazin-2-yl)acetyl]amino]methyl]pyrrolidine-1-carboxylate], the IC50 was more than 15 µM (class column of Table 3) and more than 50 µM (numeric column of Table 3).
As for `CC(C)c1nn(CC(=O)NCC2CCCN2)c(=O)c2ccc(Br)cc12` (stereo not drawn) [Example 108, 2-(6-bromo-1-oxo-4-propan-2-ylphthalazin-2-yl)-N-(pyrrolidin-2-ylmethyl)acetamide HCl salt], the IC50 (class column of Table 3) was less than 10 µM and the IC50 (numeric column of Table 3) was found to be 8.23 µM.
Take `CCN1CCCC1CNC(=O)Cn1nc(C(C)C)c2cc(Br)ccc2c1=O` (stereo not drawn) [Example 109, 2-(6-bromo-1-oxo-4-propan-2-ylphthalazin-2-yl)-N-[(1-ethylpyrrolidin-2-yl)methyl]acetamide]: the half-maximal inhibitory concentration (IC50) is, setting by setting: (class column of Table 3) less than 10 µM; (numeric column of Table 3) 5.81 µM.
For the molecule `CC(C)c1nn(CC(=O)Nc2nccc(C(F)(F)F)n2)c(=O)c2ccc(Br)cc12` [Example 110, 2-(6-bromo-1-oxo-4-propan-2-ylphthalazin-2-yl)-N-[4-(trifluoromethyl)pyrimidin-2-yl]acetamide], the IC50 runs as follows: (class column of Table 3) less than 10 µM; (numeric column of Table 3) 1.35 µM.

As usually defined, the IC50 is the midpoint of a concentration-inhibition curve. A low value points to inhibition by little substance.

The values are drawn from patent US20230357162A1, “COMPOUNDS, COMPOSITIONS AND METHODS” (Denali Therapeutics Inc., priority 2020, published 2023).
